# Assay results from PMC11242892, “Ceanothanes Derivatives as Peripheric Anionic Site and Catalytic Active Site Inhibitors of Acetylcholinesterase: Insights for Future Drug Design” (International Journal of Molecular Sciences, 2024).
# Values joined by “and” are separate entries in the source; they are usually repeats but may differ in a detail not shown here. Equal values may be shown once. “Also recorded” adds a separate entry of the source.
# Columns and labels:
# PAS of EeAChE = target: T1, PAS of EeAChE (Electrophorus electricus, UniProt O42275); assay: Propidium iodide displacement assay; type: binding; conditions: five units EeAChE, 1 µM propidium iodide solution, triplicate
# T1 construct: purchased Sigma-Aldrich
# Protocol: By interacting with soluble β-amyloid peptides and facilitating their aggregation, the AChE peripheral anionic site (PAS) at the gorge’s edge contributes to AChE’s pro-aggregation capacity toward β-amyloid. […] The potential ability of compounds to bind PAS and thus block the pro-aggregation activity of AChE is possible to evaluate through competitive propidium displacement from the PAS of AChE.
# The percentage inhibition was calculated by the following expression: 100 − (IFi/IF0 × 100), where IF1 and IF0 correspond to fluorescence intensities with and without the test compound, respectively. Each assay was carried out in triplicate independent experiments.
# [1] = target: T2, acetylcholinesterase (AChE from Electrophorus electricus) (Electrophorus electricus, UniProt O42275); assay: Ellman assay, AChE inhibitory activity; type: biochemical; conditions: IC50 ± SEM, Ellman's assay
# T2 construct: purchased Sigma-Aldrich
# Protocol: The Ellman assay was used to test acetylcholinesterase (AChE from Electrophorus electricus) inhibition activity. A mixture of the DTNB (125 µL), enzyme solution (25 µL), and compound solution (25 µL) was prepared and incubated at room temperature for 20 min. All the assays were under 0.1 M KH2PO4/K2HPO4 buffer, pH 8.0. The substrate was added to start the enzymatic reaction. […] All measurements were performed fivefold as triplicate. The compounds were assayed in a dilution interval of 15 to 500 µg/mL.
# [2] = target: T2, acetylcholinesterase (AChE from Electrophorus electricus); assay: Kinetic characterization of AChE inhibition (Lineweaver–Burk); type: biochemical; conditions: for Vmax: Lineweaver–Burk; for α: alpha calculated from Lineweaver–Burk plots; for type of inhibition: from Lineweaver–Burk plots and alpha
# Protocol: To investigate the inhibition mechanism of the tested compounds on AChE, a kinetic analysis was performed. The experiments were carried out using a combination of four substrate concentrations and three inhibitor concentrations with the aim to obtain a double reciprocal plot (Lineweaver–Burk), in which each point is the mean of three different experiments. A parallel control with no inhibitor in the mixture allowed adjusted activities to be measured at various times.
# T1 sequence (O42275 24-633): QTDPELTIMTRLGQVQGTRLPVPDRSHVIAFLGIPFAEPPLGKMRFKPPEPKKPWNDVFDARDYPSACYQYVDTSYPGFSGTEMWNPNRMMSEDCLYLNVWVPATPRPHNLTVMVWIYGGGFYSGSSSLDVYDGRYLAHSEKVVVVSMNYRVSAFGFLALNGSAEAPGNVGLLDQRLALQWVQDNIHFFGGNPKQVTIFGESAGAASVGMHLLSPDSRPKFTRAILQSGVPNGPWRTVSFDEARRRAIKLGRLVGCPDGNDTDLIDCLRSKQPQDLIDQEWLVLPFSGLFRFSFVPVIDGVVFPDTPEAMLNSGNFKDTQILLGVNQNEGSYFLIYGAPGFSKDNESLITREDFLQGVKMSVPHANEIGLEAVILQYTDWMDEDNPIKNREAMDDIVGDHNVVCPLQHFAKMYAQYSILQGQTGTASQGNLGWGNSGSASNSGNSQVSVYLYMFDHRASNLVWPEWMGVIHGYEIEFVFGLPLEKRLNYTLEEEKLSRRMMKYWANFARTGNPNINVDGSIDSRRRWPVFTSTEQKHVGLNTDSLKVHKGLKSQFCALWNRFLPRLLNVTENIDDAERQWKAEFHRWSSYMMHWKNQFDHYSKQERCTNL
# T2 sequence (O42275 24-633): as above
structure (smiles),measurement,setting,value
"C=C(C)[C@@H]1CC[C@]2(C(=O)O)CC[C@]3(C)[C@H](CC[C@@H]4[C@@]5(C)[C@@H](C(=O)O)[C@H](O)C(C)(C)[C@@H]5CC[C@]43C)[C@@H]12 [Compound 1, Ceanothic acid]",% Displacement of Propidium Iodide (Mean ± SEM),PAS of EeAChE,24.24 ± 0.32%
same,IC50,"[1]; pH 8.0, average of triplicate",47.4 µM and 47 µM
same,IC50,"[1]; pH 8.0, triplicate",47.4 µM
"C=C(C)[C@@H]1CC[C@]2(C(=O)O)CC[C@]3(C)[C@H](CC[C@@H]4[C@@]5(C)[C@@H](C(=O)O)C(=O)C(C)(C)[C@@H]5CC[C@]43C)[C@@H]12 [Compound 2, 3-oxo-Ceanothic Acid]",% Displacement of Propidium Iodide (Mean ± SEM),PAS of EeAChE,28.71 ± 0.99%
same,IC50,"[1]; pH 8.0, average of triplicate",5.28 µM and 5.3 µM
same,IC50,"[1]; pH 8.0, triplicate",5.28 µM
same,Vmax,[2],0.0032
same,α,[2],1.01
same,type of inhibition,[2],noncompetitive inhibitors
"C=C(C)[C@@H]1CC[C@]2(C(=O)OC)CC[C@]3(C)[C@H](CC[C@@H]4[C@@]5(C)[C@@H](C(=O)OC)[C@H](O)C(C)(C)[C@@H]5CC[C@]43C)[C@@H]12 [Compound 3, Ceanothic 2, 28-Dimethyl Ester]",% Displacement of Propidium Iodide (Mean ± SEM),PAS of EeAChE,27.01 ± 0.59%
same,IC50,"[1]; pH 8.0, average of triplicate",14.4 µM and 14 µM
same,IC50,"[1]; pH 8.0, triplicate",14.4 µM
same,Vmax,[2],0.0133
same,α,[2],2.98
same,type of inhibition,[2],mixed inhibitors
"C=C(C)[C@@H]1CC[C@]2(C(=O)O)CC[C@]3(C)[C@H](CC[C@@H]4[C@@]5(C)[C@@H](C(=O)O)[C@H](OCCCCBr)C(C)(C)[C@@H]5CC[C@]43C)[C@@H]12 [Compound 6, 3-(4-Bromobutoxy)-ceanothic Acid]",% Displacement of Propidium Iodide (Mean ± SEM),PAS of EeAChE,31.51 ± 1.38%
same,IC50,"[1]; pH 8.0, average of triplicate",8.4 µM and 8 µM
same,IC50,"[1]; pH 8.0, triplicate",8.4 µM
same,Vmax,[2],0.0086
same,α,[2],0.98
same,type of inhibition,[2],noncompetitive inhibitors
"C=C(C)[C@@H]1CC[C@]2(C(=O)O)CC[C@]3(C)[C@H](CC[C@@H]4[C@@]5(C)[C@@H](C(=O)O)[C@H](OC(=O)c6ccco6)C(C)(C)[C@@H]5CC[C@]43C)[C@@H]12 [Compound 7, 3-O-Furoyl-ceanothic Acid]",% Displacement of Propidium Iodide (Mean ± SEM),PAS of EeAChE,28.50 ± 2.55%
same,IC50,"[1]; pH 8.0, average of triplicate",17.9 µM and 18 µM
same,IC50,"[1]; pH 8.0, triplicate",17.9 µM
same,Vmax,[2],0.0205
same,α,[2],10.39
same,type of inhibition,[2],mixed inhibitors; also recorded: mixed-competitive-type inhibitor
